Key:
[1] = biological target: Menin-MLL (Homo sapiens (Human), UniProt O00255); test: Determination of binding constants (Ki) to Menin-MLL (HTRF); settings: HTRF, 0.25 nM H-FL-Menin, 3.2 nM FITC-MLL-4-43, 24 hr incubation; for Ki: read-out: Menin-MLL Ki HTRF Assay: Ki
[2] = biological target: hERG (Homo sapiens (Human), UniProt Q12809); test: Patch clamp assay (hERG tail currents, whole-cell); assay type: cell-based; settings: hERG transfected HEK 293 cells; for hERG % Remaining 30 μM: 30 μM compound; for hERG % Remaining 10 μM: 10 μM compound; for hERG % Remaining 1 μM: 1 μM compound; for hERG % Remaining 3 μM: 3 μM compound; for hERG % Remaining 100 μM: 100 μM compound
Sequence of hERG (Q12809 whole entry): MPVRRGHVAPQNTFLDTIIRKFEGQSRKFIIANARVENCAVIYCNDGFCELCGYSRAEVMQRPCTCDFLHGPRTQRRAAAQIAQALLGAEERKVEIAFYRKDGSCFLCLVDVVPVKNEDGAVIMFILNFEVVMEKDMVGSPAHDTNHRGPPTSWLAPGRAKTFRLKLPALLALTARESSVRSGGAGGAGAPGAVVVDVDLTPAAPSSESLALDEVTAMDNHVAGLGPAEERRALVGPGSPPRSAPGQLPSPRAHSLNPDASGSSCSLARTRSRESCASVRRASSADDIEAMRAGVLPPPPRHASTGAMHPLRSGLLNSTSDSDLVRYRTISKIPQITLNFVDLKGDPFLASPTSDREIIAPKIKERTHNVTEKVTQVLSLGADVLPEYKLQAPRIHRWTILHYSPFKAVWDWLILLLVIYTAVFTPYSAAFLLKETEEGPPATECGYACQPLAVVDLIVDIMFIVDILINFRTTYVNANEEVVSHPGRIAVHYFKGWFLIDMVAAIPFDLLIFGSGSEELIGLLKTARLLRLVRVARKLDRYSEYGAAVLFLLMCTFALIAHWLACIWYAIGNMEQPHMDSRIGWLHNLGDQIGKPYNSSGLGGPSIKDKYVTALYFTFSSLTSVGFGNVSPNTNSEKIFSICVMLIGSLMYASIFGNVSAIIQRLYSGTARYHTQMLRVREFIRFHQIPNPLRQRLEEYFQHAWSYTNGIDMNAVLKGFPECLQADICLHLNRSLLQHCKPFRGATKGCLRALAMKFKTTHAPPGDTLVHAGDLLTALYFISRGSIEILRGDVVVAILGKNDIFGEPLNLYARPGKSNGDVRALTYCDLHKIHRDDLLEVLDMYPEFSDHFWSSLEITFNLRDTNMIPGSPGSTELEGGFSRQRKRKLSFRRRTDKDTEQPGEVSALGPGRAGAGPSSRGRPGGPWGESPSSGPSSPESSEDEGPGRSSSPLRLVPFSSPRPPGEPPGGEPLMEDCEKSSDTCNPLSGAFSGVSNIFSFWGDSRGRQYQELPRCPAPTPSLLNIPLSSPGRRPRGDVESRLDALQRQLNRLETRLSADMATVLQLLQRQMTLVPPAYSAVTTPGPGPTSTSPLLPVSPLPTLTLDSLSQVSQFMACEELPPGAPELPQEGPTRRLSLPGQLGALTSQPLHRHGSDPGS
Description: The 35 mm culture dishes upon which cells were seeded at a density allowing single cells to be recorded were placed on the dish holder of the microscope and continuously perfused (at approximately 1 mL/min) with the bath solution described in section 4.6. All solutions applied to cells including the pipette solution were maintained at room temperature (19° C. to 30° C.). After formation of a Gigaohm seal between the patch electrodes and individual hERG stably transfected HEK 293 cells (pipette resistance range: 2.0 MΩ2 to 7.0 MΩ; seal resistance range: >1GΩ) the cell membrane across the pipette tip was ruptured to assure electrical access to the cell interior (whole-cell patch-configuration). In case the quality of the seal was poor, the process of seal formation was repeated with a different cell and a new pipette. As soon as a stable seal could be established, hERG outward tail currents were measured upon depolarization of the cell membrane to +20 mV for 2s (activation of channels) from a holding potential of −80 mV and upon subsequent repolarization to −40 mV for 3 s. This voltage protocol (as shown below) was run at least 10 times at intervals of 10 s. If current density was judged to be too low for measurement, another cell was recorded.
During wash-in of the test item the voltage protocol indicated above was run continuously again at 10 s intervals until the steady-state level of block was reached.
The IC50 was determined by fitting the dose response curve with a 2-parameter logistic function (amax=100%).

Sequence of Menin-MLL (O00255 whole entry): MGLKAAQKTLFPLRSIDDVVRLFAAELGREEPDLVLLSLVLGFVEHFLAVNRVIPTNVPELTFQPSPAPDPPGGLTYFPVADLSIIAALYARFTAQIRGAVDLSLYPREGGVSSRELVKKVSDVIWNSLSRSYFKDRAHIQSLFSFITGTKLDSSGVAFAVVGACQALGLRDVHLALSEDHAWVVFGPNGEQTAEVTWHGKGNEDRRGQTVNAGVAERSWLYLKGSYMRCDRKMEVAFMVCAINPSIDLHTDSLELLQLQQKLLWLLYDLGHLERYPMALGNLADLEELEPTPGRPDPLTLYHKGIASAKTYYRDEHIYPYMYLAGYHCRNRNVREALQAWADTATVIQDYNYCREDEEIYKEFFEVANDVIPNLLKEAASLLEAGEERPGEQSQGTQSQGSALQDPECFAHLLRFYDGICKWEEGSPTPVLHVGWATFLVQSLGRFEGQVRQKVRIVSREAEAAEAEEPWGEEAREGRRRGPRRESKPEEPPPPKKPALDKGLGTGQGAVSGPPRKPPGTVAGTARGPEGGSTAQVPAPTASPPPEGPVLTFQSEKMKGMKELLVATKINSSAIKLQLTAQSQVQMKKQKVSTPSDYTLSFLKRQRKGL

| Compound | Ki [1] [nM] | hERG % Remaining 30 μM [2] | IC50 [2] [µM] | EC50 [1] [nM] | hERG % Remaining 10 μM [2] | hERG % Remaining 1 μM [2] | hERG % Remaining 3 μM [2] | hERG % Remaining 100 μM [2] |
| --- | --- | --- | --- | --- | --- | --- | --- | --- |
| CCNS(=O)(=O)N[C@@H]1CC[C@@H](CN2CCC3(CC2)CN(c2ncnnc2Oc2ccc(F)cc2C(=O)N(CC(F)(F)F)C(C)C)C3)OC1 (single isomer, unassigned) [Compound 193] | < 1 | +++ (“+++” means ≥66%) | ≥ 50 | – | – | – | – | – |
| CCN(C(=O)c1cc(F)ccc1Oc1cncnc1N1CC2(CCN(C[C@@H]3CC[C@@H](NS(C)(=O)=O)CO3)CC2)C1)C(C)C [Compound 1, N-ethyl-5-fluoro-N-isopropyl-2-((4-(7-(((2S,5R)-5-(methylsulfonamido)tetrahydro-2H-pyran-2-yl)methyl)-2,7-diazaspiro[3.5]nonan-2-yl)pyrimidin-5-yl)oxy)benzamide] | < 1 | ++ (“++” means ≥33% and <66%) | – | < 50 | +++ (“+++” means ≥66%) | – | – | – |
| CCN(C(=O)c1cc(F)ccc1Oc1cncnc1N1CC2(CCN(C[C@@H]3CC[C@@H](NS(=O)(=O)CC)CO3)CC2)C1)C(C)C [Compound 2, N-ethyl-2-((4-(7-(((2S,5R)-5-(ethylsulfonamido)tetrahydro-2H-pyran-2-yl)methyl)-2,7-diazaspiro[3.5]nonan-2-yl)pyrimidin-5-yl)oxy)-5-fluoro-N-isopropylbenzamide] | < 1 | +++ (“+++” means ≥66%) | – | < 50 | +++ (“+++” means ≥66%) | – | – | – |
| CCN(C(=O)c1cc(F)ccc1Oc1cncnc1N1CC2(CCN(C[C@@H]3CC[C@@H](NS(=O)(=O)C4CC4)CO3)CC2)C1)C(C)C [Compound 4, 2-((4-(7-(((2S,5R)-5-(cyclopropanesulfonamido)tetrahydro-2H-pyran-2-yl)methyl)-2,7-diazaspiro[3.5]nonan-2-yl)pyrimidin-5-yl)oxy)-N-ethyl-5-fluoro-N-isopropylbenzamide] | < 1 | +++ (“+++” means ≥66%) | ≥ 50 | < 50 | +++ (“+++” means ≥66%) | – | – | – |
| CCN(C(=O)c1cc(F)ccc1Oc1cncnc1N1CC2(CCN(C[C@@H]3CC[C@@H](NS(=O)(=O)C4CCC4)CO3)CC2)C1)C(C)C [Compound 6, 2-((4-(7-(((2S,5R)-5-(cyclobutanesulfonamido)tetrahydro-2H-pyran-2-yl)methyl)-2,7-diazaspiro[3.5]nonan-2-yl)pyrimidin-5-yl)oxy)-N-ethyl-5-fluoro-N-isopropylbenzamide] | < 1 | ++ (“++” means ≥33% and <66%) | – | < 50 | +++ (“+++” means ≥66%) | – | – | – |
| CCN(C(=O)c1cc(F)ccc1Oc1cncnc1N1CC2(CCN(C[C@@H]3CC[C@@H](NC(=O)OC(C)(C)C)CO3)CC2)C1)C(C)C [Compound 11, tert-butyl ((3R,6S)-6-((2-(5-(2-(ethyl(isopropyl)carbamoyl)-4-fluorophenoxy)pyrimidin-4-yl)-2,7-diazaspiro[3.5]nonan-7-yl)methyl)tetrahydro-2H-pyran-3-yl)carbamate] | < 1 | + (“+” means <33%) | – | < 50 | + (“+” means <33%) | – | – | – |
| CC(C)N(C(=O)c1cc(F)ccc1Oc1cncnc1N1CC2(CCN(C[C@@H]3CC[C@@H](NS(C)(=O)=O)CO3)CC2)C1)C(C)C [Compound 12, 5-fluoro-N,N-diisopropyl-2-((4-(7-(((2S,5R)-5-(methylsulfonamido)tetrahydro-2H-pyran-2-yl)methyl)-2,7-diazaspiro[3.5]nonan-2-yl)pyrimidin-5-yl)oxy)benzamide] | < 1 | +++ (“+++” means ≥66%) | ≥ 50 | < 50 | +++ (“+++” means ≥66%) | +++ (“+++” means ≥66%) | +++ (“+++” means ≥66%) | ++ (“++” means ≥33% and <66%) |
| CCS(=O)(=O)N[C@@H]1CC[C@@H](CN2CCC3(CC2)CN(c2ncncc2Oc2ccc(F)cc2C(=O)N(C(C)C)C(C)C)C3)OC1 [Compound 13, 2-((4-(7-(((2S,5R)-5-(ethylsulfonamido)tetrahydro-2H-pyran-2-yl)methyl)-2,7-diazaspiro[3.5]nonan-2-yl)pyrimidin-5-yl)oxy)-5-fluoro-N,N-diisopropylbenzamide] | < 1 | ++ (“++” means ≥33% and <66%) | ≥ 50 | < 50 | +++ (“+++” means ≥66%) | +++ (“+++” means ≥66%) | +++ (“+++” means ≥66%) | ++ (“++” means ≥33% and <66%) |
| CC(C)N(C(=O)c1cc(F)ccc1Oc1cncnc1N1CC2(CCN(C[C@@H]3CC[C@@H](NS(=O)(=O)C(C)C)CO3)CC2)C1)C(C)C [Compound 14, 5-fluoro-N,N-diisopropyl-2-((4-(7-(((2S,5R)-5-((1-methylethyl)sulfonamido)tetrahydro-2H-pyran-2-yl)methyl)-2,7-diazaspiro[3.5]nonan-2-yl)pyrimidin-5-yl)oxy)benzamide] | < 1 | ++ (“++” means ≥33% and <66%) | 25 to 50 | < 50 | +++ (“+++” means ≥66%) | – | +++ (“+++” means ≥66%) | + (“+” means <33%) |
| CC(C)N(C(=O)c1cc(F)ccc1Oc1cncnc1N1CC2(CCN(C[C@@H]3CC[C@@H](NS(=O)(=O)C4CC4)CO3)CC2)C1)C(C)C [Compound 15, 2-((4-(7-(((2S,5R)-5-(cyclopropanesulfonamido)tetrahydro-2H-pyran-2-yl)methyl)-2,7-diazaspiro[3.5]nonan-2-yl)pyrimidin-5-yl)oxy)-5-fluoro-N,N-diisopropylbenzamide] | < 1 | ++ (“++” means ≥33% and <66%) | 25 to 50 | < 50 | +++ (“+++” means ≥66%) | – | +++ (“+++” means ≥66%) | + (“+” means <33%) |
| CC(C)N(C(=O)c1cc(F)ccc1Oc1cncnc1N1CC2(CCN(C[C@@H]3CC[C@@H](NS(=O)(=O)C4COC4)CO3)CC2)C1)C(C)C [Compound 16, 5-fluoro-N,N-diisopropyl-2-((4-(7-(((2S,5R)-5-(oxetane-3-sulfonamido)tetrahydro-2H-pyran-2-yl)methyl)-2,7-diazaspiro[3.5]nonan-2-yl)pyrimidin-5-yl)oxy)benzamide] | < 1 | +++ (“+++” means ≥66%) | – | < 50 | +++ (“+++” means ≥66%) | – | – | – |
| CCS(=O)(=O)N[C@@H]1CC[C@@H](CN2CCC3(CC2)CN(c2ncncc2Oc2ccc(F)cc2C(=O)N(C(C)C)C2CC2)C3)OC1 [Compound 19, N-cyclopropyl-2-((4-(7-(((2S,5R)-5-(ethylsulfonamido)tetrahydro-2H-pyran-2-yl)methyl)-2,7-diazaspiro[3.5]nonan-2-yl)pyrimidin-5-yl)oxy)-5-fluoro-N-isopropylbenzamide] | < 1 | ++ (“++” means ≥33% and <66%) | – | < 50 | +++ (“+++” means ≥66%) | – | – | – |
| CC(C)N(C(=O)c1cc(F)ccc1Oc1cncnc1N1CC2(CCN(C[C@@H]3CC[C@@H](NS(=O)(=O)C4CC4)CO3)CC2)C1)C1CC1 [Compound 21, 2-((4-(7-(((2S,5R)-5-(cyclopropanesulfonamido)tetrahydro-2H-pyran-2-yl)methyl)-2,7-diazaspiro[3.5]nonan-2-yl)pyrimidin-5-yl)oxy)-N-cyclopropyl-5-fluoro-N-isopropylbenzamide] | < 1 | + (“+” means <33%) | – | < 50 | ++ (“++” means ≥33% and <66%) | – | – | – |
| CCS(=O)(=O)N[C@@H]1CC[C@@H](CN2CCC3(CC2)CN(c2ncncc2Oc2ccc(F)cc2C(=O)N(C(C)C)[C@H]2CCOC2)C3)OC1 [Compound 33, 2-((4-(7-(((2S,5R)-5-(ethylsulfonamido)tetrahydro-2H-pyran-2-yl)methyl)-2,7-diazaspiro[3.5]nonan-2-yl)pyrimidin-5-yl)oxy)-5-fluoro-N-isopropyl-N-((S)-tetrahydrofuran-3-yl)benzamide] | < 1 | +++ (“+++” means ≥66%) | – | < 50 | +++ (“+++” means ≥66%) | – | – | – |
| CCS(=O)(=O)N[C@@H]1CC[C@@H](CN2CCC3(CC2)CN(c2ncncc2Oc2ccc(F)cc2C(=O)N(C(C)C)C2CC(F)C2)C3)OC1 (stereo partly drawn) [Compound 244, 2-((4-(7-(((2S,5R)-5-(ethylsulfonamido)tetrahydro-2H-pyran-2-yl)methyl)-2,7-diazaspiro[3.5]nonan-2-yl)pyrimidin-5-yl)oxy)-5-fluoro-N-((1s,3s)-3-fluorocyclobutyl)-N-isopropylbenzamide] | – | ++ (“++” means ≥33% and <66%) | – | – | +++ (“+++” means ≥66%) | – | – | – |
| CCN(C(=O)c1cc(F)ccc1Oc1cncnc1N1CC2(CCN(C[C@H]3CC[C@H](NS(=O)(=O)CC)CC3)CC2)C1)C(C)C [SNDX-5613] | – | ++ (“++” means ≥33% and <66%) | < 25 | – | ++ (“++” means ≥33% and <66%) | +++ (“+++” means ≥66%) | +++ (“+++” means ≥66%) | + (“+” means <33%) |
